One assay deals with Galectin-1 (Homo sapiens, UniProt P09382). The assay is described as follows: Fluorescence anisotropy assay, inhibition of galectin / fluorescein tagged saccharide probe interaction. The note with it: compound as inhibitor of probe binding. The protocol:
(§1) The affinity of Example 1-45 for galectins were determined by a fluorescence anisotropy assay where the compound was used as an inhibitor of the interaction between galectin and a fluorescein tagged saccharide probe as described Sörme, P., Kahl-Knutsson, B., Huflejt, M., Nilsson, U. J., and Leffler H. (2004) Fluorescence polarization as an analytical tool to evaluate galectin-ligand interactions. Anal. Biochem. 334: 36-47, (Sorme et al., 2004) and Monovalent interactions of Galectin-1 By Salomonsson, Emma; Larumbe, Amaia; Tejler, Johan; Tullberg, Erik; Rydberg, Hanna; Sundin, Anders; Khabut, Areej; Frejd, Torbjorn; Lobsanov, Yuri D.; Rini, James M.; et al, From Biochemistry (2010), 49(44), 9518-9532, (Salomonsson et al., 2010).
A general note: Polarisation of emitted light reports the rotation of a fluorescent probe.

The target of the next assay is Galectin-3 (Homo sapiens, UniProt P17931). The assay is described as above. The note with it: compound as inhibitor of probe binding. As for the experimental part:
as §1

Sequence of Galectin-1 (P09382 whole entry, species assumed): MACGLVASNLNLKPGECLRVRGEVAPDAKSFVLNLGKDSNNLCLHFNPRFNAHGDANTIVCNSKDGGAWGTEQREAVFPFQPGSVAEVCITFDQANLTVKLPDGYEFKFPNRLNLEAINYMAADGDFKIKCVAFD
Sequence of Galectin-3 (P17931 whole entry, species assumed): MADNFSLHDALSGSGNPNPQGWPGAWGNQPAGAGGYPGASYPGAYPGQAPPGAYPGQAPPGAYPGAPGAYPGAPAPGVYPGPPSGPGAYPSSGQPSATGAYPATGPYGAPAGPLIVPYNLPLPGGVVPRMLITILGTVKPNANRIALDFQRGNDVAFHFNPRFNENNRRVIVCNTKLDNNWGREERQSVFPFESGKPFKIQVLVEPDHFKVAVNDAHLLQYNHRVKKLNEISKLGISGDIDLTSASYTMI

As to `OCC1O[C@H](Sc2cccc(Cl)c2)C(O)C(n2cc(-c3cccc(F)c3)cn2)[C@H]1O` (stereo partly drawn) [Example 1, 3-Chlorophenyl 3-deoxy-3-[4-(3-fluorophenyl)-1H-1,2-pyrazol-1-yl]-1-thio-α-D-galactopyranoside], the results for the Kd at Galectin-1 and at Galectin-3 were 19.9 µM and 0.27 µM, respectively.

On to `Cc1c(F)cc(-c2cnn(C3C(O)[C@@H](Sc4cncc(Cl)c4)OC(CO)[C@@H]3O)c2)cc1F` (stereo partly drawn) [Example 4, 5-Chloropyridin-3-yl 3-deoxy-3-[4-(3,5-difluoro-4-methylphenyl)-1H-1,2-pyrazol-1-yl]-1-thio-α-D-galactopyranoside], for which the Kd at Galectin-1 worked out at 43 µM; at Galectin-3, 0.009 µM.

`OCC1O[C@H](Sc2cncc(Br)c2)C(O)C(n2cc(-c3cc(F)c(F)c(F)c3)cn2)[C@H]1O` (stereo partly drawn) [Example 5, 5-Bromopyridin-3-yl 3-deoxy-3-[4-(3,4,5-trifluorophenyl)-1H-1,2-pyrazol-1-yl]-1-thio-α-D-galactopyranoside]: the Kd is 14.8 µM on Galectin-1 and 0.025 µM on Galectin-3.

Take `C#Cc1cncc(S[C@H]2OC(CO)[C@H](O)C(n3cc(-c4cc(F)c(Cl)c(F)c4)cn3)C2O)c1` (stereo partly drawn) [Example 7, 5-Ethynylpyridin-3-yl 3-[4-(4-chloro-3,5-difluorophenyl)-1H-1,2-pyrazol-1-yl]-3-deoxy-1-thio-α-D-galactopyranoside]: the Kd amounted to 30 µM on Galectin-1 and 0.014 µM at Galectin-3.

As to `N#Cc1ccc(Cl)cc1S[C@H]1OC(CO)[C@H](O)C(n2cc(-c3cc(F)c(Cl)c(F)c3)cn2)C1O` (stereo partly drawn) [Example 8, 5-Chloro-2-cyanophenyl 3-[4-(4-chloro-3,5-difluorophenyl)-1H-1,2-pyrazol-1-yl]-3-deoxy-1-thio-α-D-galactopyranoside], the values for the Kd on Galectin-1 and at Galectin-3 were 48 µM and 0.02 µM, respectively.

Regarding `O=C(c1ccc(Cl)cc1S[C@H]1OC(CO)[C@H](O)C(n2cc(-c3cc(F)c(Cl)c(F)c3)cn2)C1O)N1CCC1` (stereo partly drawn) [Example 9, 2-(N-azetidinyl-carbonyl)-5-chlorophenyl 3-[4-(4-chloro-3,5-difluorophenyl)-1H-1,2-pyrazol-1-yl]-3-deoxy-1-thio-α-D-galactopyranoside], the Kd amounted to 19.2 µM at Galectin-1 and 0.012 µM on Galectin-3.

On to `O=C(c1ccc(Cl)cc1S[C@H]1OC(CO)[C@H](O)C(n2cc(-c3cc(F)c(F)c(F)c3)cn2)C1O)N1CCC1` (stereo partly drawn) [Example 10, 2-(N-azetidinyl-carbonyl)-5-chlorophenyl 3-deoxy-3-[4-(3,4,5-trifluorophenyl)-1H-1,2-pyrazol-1-yl]-1-thio-α-D-galactopyranoside], for which the Kd at Galectin-1 came out at 6.8 µM; at Galectin-3, 0.015 µM.

In the case of `N#Cc1ccc(Cl)cc1S[C@H]1OC(CO)[C@H](O)C(n2cc(-c3cc(F)c(F)c(F)c3)cn2)C1O` (stereo partly drawn) [Example 11, 5-Chloro-2-cyanophenyl 3-deoxy-3-[4-(3,4,5-trifluorophenyl)-1H-1,2-pyrazol-1-yl]-1-thio-α-D-galactopyranoside], the values for the Kd at Galectin-1 and on Galectin-3 were 9.8 µM and 0.024 µM, respectively.

Regarding `N#Cc1ncc(Cl)cc1S[C@H]1OC(CO)[C@H](O)C(n2cc(-c3cc(F)c(Cl)c(F)c3)cn2)C1O` (stereo partly drawn) [Example 13, 5-Chloro-2-cyanopyridin-3-yl 3-[4-(4-chloro-3,5-difluorophenyl)-1H-1,2-pyrazol-1-yl]-3-deoxy-1-thio-α-D-galactopyranoside], the Kd at Galectin-1 came out at 34 µM; on Galectin-3, 0.014 µM.

Turning to `Cc1cnc(C#N)c(S[C@H]2OC(CO)[C@H](O)C(n3cc(-c4cc(F)c(F)c(F)c4)cn3)C2O)c1` (stereo partly shown) [Example 14], the Kd at Galectin-1 was determined as 51 µM; on Galectin-3, 0.08 µM.

Consider `C#Cc1cnc(C#N)c(S[C@H]2OC(CO)[C@H](O)C(n3cc(-c4cc(F)c(F)c(F)c4)cn3)C2O)c1` (stereo partly drawn) [Example 16, 2-Cyano-5-ethynylpyridin-3-yl 3-deoxy-3-[4-(3,4,5-trifluorophenyl)-1H-1,2-pyrazol-1-yl]-1-thio-α-D-galactopyranoside], for which the Kd at Galectin-1 came to 12.7 µM; at Galectin-3 it was 0.021 µM.

The term Kd denotes the free concentration of one partner at which half of the binding sites on the other are occupied at equilibrium, for simple one-to-one binding. Higher therefore signals a looser complex.

The record behind these values is US12410207B2, “Galactoside inhibitor of galectins” (GALECTO BIOTECH AB, priority 2019, dated 2025).
